According to publication PMC6576746, “Rational discovery of dual-indication multi-target PDE/Kinase inhibitor for precision anti-cancer therapy using structural systems pharmacology” (PLoS Computational Biology, 2019):

What was measured:
Assay in all cases: biochemical
Parameters in all cases: DiscoverX KinomeScan competition binding assay across human kinases; per cent of control at 10 and 100 uM
[1] = target: T1, ABL1(F317I)-phosphorylated (Homo sapiens, UniProt P00519, F317I); details: competition binding, % of control; read-out: Percent Control (100 uM Levosimendan)
T1 construct: phosphorylated
Summary of the method: (§1)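 Binding is expressed as %control, normalised between positive and negative control signals. The compound (levosimendan) was tested at 10 μM and 100 μM in the DiscoverX KinomeScan competition binding format against human kinases.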

BIKE = target: T2, BIKE (Homo sapiens, UniProt Q9NSY1); details: competition binding, % of control
T2 construct: gene BMP2K
T2 sequence (Q9NSY1 whole entry): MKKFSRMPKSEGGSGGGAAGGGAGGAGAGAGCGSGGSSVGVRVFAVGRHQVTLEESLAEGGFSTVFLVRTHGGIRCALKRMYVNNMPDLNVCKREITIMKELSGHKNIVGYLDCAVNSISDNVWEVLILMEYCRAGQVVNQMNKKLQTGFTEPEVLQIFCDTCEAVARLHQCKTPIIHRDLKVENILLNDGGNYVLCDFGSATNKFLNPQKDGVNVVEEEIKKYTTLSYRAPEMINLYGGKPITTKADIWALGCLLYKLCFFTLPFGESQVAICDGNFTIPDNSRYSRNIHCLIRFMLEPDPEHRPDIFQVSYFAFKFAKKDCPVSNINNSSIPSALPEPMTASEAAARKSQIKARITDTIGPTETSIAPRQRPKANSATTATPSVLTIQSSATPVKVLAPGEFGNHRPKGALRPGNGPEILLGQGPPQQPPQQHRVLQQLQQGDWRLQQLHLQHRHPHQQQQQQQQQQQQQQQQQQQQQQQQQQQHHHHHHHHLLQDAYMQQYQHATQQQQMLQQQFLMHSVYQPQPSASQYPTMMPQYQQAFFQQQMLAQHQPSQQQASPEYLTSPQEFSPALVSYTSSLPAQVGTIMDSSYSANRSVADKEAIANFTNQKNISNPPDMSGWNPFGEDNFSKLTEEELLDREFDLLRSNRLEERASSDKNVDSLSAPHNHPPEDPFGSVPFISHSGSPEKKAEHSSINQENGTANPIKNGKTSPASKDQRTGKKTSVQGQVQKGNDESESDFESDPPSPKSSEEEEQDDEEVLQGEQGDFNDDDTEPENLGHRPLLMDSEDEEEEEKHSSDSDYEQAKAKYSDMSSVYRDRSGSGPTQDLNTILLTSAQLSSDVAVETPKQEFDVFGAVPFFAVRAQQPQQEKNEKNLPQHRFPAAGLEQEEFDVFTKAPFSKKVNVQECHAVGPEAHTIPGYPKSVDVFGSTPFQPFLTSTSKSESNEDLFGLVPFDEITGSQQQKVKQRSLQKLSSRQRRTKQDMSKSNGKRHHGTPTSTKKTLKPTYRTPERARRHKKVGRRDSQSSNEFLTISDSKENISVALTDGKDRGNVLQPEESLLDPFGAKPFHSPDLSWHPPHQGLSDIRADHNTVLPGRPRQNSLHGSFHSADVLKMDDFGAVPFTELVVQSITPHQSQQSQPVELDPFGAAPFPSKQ
Summary of the method: as §1

CSNK1E = CSNK1E (Homo sapiens, UniProt P49674); details: competition binding, % of control; read-out: Percent Control (100 uM Levosimendan)
Summary of the method: as §1

ERK8 = target: T3, ERK8 (Homo sapiens, UniProt Q8TD08); details: competition binding, % of control; read-out: Percent Control (100 uM Levosimendan)
T3 construct: gene MAPK15
Summary of the method: as §1

HASPIN = HASPIN (Homo sapiens, UniProt Q8TF76); details: competition binding, % of control; read-out: Percent Control (100 uM Levosimendan)
Summary of the method: as §1

IRAK4 = IRAK4 (Homo sapiens, UniProt Q9NWZ3); details: competition binding, % of control; read-out: Percent Control (100 uM Levosimendan)
Summary of the method: as §1

MAP3K2 = MAP3K2 (Homo sapiens, UniProt Q9Y2U5); details: competition binding, % of control; read-out: Percent Control (100 uM Levosimendan)
MAP3K2, sequence (Q9Y2U5 whole entry): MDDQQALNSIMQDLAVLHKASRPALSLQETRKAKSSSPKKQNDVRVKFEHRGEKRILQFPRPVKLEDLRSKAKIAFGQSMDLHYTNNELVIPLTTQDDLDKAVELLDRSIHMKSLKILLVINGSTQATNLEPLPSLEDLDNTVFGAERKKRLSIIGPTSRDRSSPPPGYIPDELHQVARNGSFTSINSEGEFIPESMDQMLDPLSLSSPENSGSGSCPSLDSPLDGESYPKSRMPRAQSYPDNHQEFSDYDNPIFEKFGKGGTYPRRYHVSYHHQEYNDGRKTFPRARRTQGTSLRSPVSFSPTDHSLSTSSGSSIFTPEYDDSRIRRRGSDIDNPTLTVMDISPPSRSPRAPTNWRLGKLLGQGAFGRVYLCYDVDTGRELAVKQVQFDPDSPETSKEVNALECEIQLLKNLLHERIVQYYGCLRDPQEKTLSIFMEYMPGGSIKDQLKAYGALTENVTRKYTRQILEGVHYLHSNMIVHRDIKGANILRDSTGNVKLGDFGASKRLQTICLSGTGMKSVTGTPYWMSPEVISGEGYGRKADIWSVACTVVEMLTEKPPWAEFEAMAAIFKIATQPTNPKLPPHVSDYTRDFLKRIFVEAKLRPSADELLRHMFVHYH
Summary of the method: as §1

MST1 = target: T4, MST1 (Homo sapiens, UniProt Q13043); details: competition binding, % of control; read-out: Percent Control (100 uM Levosimendan)
T4 construct: gene STK4
Summary of the method: as §1

PIK3CA(E545A) = PIK3CA(E545A) (Homo sapiens, UniProt P42336, E545A); details: competition binding, % of control; read-out: Percent Control (100 uM Levosimendan)
Summary of the method: as §1

PLK2 = PLK2 (Homo sapiens, UniProt Q9NYY3); details: competition binding, % of control; read-out: Percent Control (100 uM Levosimendan)
Summary of the method: as §1

PLK3 = PLK3 (Homo sapiens, UniProt Q9H4B4); details: competition binding, % of control; read-out: Percent Control (100 uM Levosimendan)
Summary of the method: as §1

PRKCH = PRKCH (Homo sapiens, UniProt P24723); details: competition binding, % of control; read-out: Percent Control (100 uM Levosimendan)
Summary of the method: as §1

PRKG1 = PRKG1 (Homo sapiens, UniProt Q13976); details: competition binding, % of control; read-out: Percent Control (100 uM Levosimendan)
Summary of the method: as §1

PYK2 = target: T5, PYK2 (Homo sapiens, UniProt Q14289); details: competition binding, % of control; read-out: Percent Control (100 uM Levosimendan)
T5 construct: gene PTK2B
Summary of the method: as §1

SGK = target: T6, SGK (Homo sapiens, UniProt O00141); details: competition binding, % of control
T6 construct: gene SGK1
T6 sequence (O00141 whole entry): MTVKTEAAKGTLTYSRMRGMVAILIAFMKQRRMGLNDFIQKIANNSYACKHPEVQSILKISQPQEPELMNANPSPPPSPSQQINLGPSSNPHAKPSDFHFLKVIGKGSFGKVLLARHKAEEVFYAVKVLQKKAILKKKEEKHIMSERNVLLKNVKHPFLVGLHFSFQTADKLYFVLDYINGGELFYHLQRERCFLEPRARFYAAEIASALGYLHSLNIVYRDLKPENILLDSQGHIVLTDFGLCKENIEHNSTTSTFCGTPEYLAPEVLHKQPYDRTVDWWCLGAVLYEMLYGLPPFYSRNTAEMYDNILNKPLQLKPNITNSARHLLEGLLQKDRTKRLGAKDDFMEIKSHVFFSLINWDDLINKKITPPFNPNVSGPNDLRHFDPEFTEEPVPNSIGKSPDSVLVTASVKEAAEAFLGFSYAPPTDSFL
Summary of the method: as §1

STK36 = STK36 (Homo sapiens, UniProt Q9NRP7); details: competition binding, % of control
STK36, sequence (Q9NRP7 whole entry): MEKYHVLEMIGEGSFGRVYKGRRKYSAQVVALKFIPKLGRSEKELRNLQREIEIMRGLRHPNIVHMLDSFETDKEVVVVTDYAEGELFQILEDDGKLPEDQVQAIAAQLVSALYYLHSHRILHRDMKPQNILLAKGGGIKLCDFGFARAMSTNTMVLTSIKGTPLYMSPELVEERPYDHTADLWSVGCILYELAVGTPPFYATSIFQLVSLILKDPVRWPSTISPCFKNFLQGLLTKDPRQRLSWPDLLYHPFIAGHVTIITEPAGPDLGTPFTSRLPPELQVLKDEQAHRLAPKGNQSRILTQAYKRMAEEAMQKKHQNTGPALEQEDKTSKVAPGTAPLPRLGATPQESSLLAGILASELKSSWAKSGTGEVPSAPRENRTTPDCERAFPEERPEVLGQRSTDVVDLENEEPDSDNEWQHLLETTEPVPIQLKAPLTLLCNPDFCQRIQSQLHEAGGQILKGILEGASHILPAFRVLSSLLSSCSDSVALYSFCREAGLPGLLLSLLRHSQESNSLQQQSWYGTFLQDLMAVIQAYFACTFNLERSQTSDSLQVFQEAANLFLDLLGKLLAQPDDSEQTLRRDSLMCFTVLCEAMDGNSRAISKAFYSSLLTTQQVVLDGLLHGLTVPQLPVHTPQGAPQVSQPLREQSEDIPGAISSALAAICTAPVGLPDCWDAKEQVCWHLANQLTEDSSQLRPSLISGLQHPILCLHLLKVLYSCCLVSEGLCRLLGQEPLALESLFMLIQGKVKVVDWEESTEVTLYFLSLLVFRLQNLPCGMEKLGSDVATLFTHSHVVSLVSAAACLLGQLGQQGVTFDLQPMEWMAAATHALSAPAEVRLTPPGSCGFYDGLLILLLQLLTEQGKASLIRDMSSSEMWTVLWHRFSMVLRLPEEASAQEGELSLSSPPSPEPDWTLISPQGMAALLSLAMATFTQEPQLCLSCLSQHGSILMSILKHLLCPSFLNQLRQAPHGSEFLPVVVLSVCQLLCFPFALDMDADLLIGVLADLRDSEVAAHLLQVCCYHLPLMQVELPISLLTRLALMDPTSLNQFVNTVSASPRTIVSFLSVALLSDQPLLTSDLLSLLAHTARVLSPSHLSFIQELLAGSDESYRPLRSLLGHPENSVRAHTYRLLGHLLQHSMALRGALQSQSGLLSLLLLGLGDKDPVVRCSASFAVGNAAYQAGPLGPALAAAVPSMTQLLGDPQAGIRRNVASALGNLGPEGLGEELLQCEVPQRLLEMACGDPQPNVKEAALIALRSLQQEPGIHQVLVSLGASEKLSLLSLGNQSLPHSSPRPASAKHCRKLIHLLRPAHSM
Summary of the method: as §1

[2] = target: T7, TYK2(JH1domain-catalytic) (Homo sapiens, UniProt P29597); details: competition binding, % of control
T7 construct: JH1domain-catalytic
T7 sequence (P29597 whole entry): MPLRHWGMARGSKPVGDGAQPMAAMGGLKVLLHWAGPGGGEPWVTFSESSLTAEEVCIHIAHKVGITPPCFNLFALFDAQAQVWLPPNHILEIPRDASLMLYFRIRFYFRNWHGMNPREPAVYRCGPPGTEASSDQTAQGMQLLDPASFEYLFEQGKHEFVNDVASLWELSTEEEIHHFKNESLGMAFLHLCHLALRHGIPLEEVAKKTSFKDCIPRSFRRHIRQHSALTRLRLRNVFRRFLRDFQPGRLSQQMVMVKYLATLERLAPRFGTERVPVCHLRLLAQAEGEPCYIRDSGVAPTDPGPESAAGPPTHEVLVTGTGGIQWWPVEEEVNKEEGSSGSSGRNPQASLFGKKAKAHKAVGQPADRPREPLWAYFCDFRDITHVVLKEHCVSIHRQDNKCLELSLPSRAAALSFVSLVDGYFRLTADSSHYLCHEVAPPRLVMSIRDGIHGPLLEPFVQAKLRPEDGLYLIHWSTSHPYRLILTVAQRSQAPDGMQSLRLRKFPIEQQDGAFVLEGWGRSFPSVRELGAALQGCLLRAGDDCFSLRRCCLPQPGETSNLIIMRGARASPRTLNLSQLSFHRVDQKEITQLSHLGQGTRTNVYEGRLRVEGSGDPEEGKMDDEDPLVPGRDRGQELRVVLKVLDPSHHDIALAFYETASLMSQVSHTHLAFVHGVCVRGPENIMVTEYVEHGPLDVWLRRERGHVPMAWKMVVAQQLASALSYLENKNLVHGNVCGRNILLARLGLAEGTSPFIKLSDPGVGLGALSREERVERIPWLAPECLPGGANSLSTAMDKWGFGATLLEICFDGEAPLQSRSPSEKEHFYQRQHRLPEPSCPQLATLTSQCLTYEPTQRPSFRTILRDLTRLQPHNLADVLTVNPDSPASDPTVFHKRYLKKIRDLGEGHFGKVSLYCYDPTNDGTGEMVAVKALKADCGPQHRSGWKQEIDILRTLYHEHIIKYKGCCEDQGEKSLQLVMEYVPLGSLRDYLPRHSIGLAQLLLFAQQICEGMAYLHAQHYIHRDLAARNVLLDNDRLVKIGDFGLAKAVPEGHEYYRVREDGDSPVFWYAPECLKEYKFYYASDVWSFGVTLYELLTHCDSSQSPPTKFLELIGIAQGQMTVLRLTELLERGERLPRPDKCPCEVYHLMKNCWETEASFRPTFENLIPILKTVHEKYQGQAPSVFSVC
Summary of the method: as §1

WNK3 = WNK3 (Homo sapiens, UniProt Q9BYP7); details: competition binding, % of control; read-out: Percent Control (100 uM Levosimendan)
Summary of the method: as §1

p38-gamma = target: T8, p38-gamma (Homo sapiens, UniProt P53778); details: competition binding, % of control
T8 construct: gene MAPK12
T8 sequence (P53778 whole entry): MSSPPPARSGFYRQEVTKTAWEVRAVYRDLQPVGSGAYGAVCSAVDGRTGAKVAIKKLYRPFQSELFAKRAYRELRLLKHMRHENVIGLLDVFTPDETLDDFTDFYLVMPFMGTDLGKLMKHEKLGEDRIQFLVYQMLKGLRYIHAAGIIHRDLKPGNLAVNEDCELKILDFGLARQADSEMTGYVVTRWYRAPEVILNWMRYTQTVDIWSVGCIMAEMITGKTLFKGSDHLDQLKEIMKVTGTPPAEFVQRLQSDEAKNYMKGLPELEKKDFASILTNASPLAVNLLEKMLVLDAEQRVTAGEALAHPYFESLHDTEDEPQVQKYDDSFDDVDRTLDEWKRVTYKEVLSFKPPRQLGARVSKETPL
Summary of the method: as §1

[3] = read-out: Percent Control (10 uM Levosimendan)
[4] = read-out: Percent Control (100 uM Levosimendan)

remaining binding at 100 µM [1]: 100%
remaining binding at 10 µM (BIKE; [3]): 47%
remaining binding at 100 µM (BIKE; [4]): 2.2%
remaining binding at 100 µM (CSNK1E): 63%
remaining binding at 100 µM (HASPIN): 69%
remaining binding at 100 µM (IRAK4): 80%
remaining binding at 100 µM (MAP3K2): 86%
remaining binding at 100 µM (MST1): 75%
remaining binding at 100 µM (PIK3CA(E545A)): 68%
remaining binding at 100 µM (PLK2): 72%
remaining binding at 100 µM (PLK3): 97%
remaining binding at 100 µM (PRKCH): 69%
remaining binding at 100 µM (PRKG1): 64%
remaining binding at 100 µM (PYK2): 93%
remaining binding at 10 µM (SGK; [3]): 81%
remaining binding at 100 µM (SGK; [4]): 40%
remaining binding at 10 µM (STK36; [3]): 98%
remaining binding at 100 µM (STK36; [4]): 50%
remaining binding at 10 µM [2, 3]: 85%
remaining binding at 100 µM [2, 4]: 27%
remaining binding at 100 µM (WNK3): 81%
remaining binding at 10 µM (p38-gamma; [3]): 92%
remaining binding at 100 µM (p38-gamma; [4]): 52%
SMILES: C[C@@H]1CC(=O)NN=C1c1ccc(NN=C(C#N)C#N)cc1 [levosimendan]
remaining binding at 100 µM (ERK8): 100%
